The structures appear in SMILES notation. Peptide text beside a SMILES is read from it.

The target of assay [1] is HLA-B1502 (Homo sapiens, UniProt P01889, A329T/A93T/A95T/C349S/D201E/D98Y/E187L/E204Q/E69M/E70A/H137Y/K202T/L119I/Q94N/R155S/R180L/S121R/S35A/S48A/T118I/V306I/V36M/Y140S/Y91S). The experiment in a line: Competitive peptide binding assay, CIR-B1502. The conditions noted are these: HMy2.CIR-B1502 cells, reference Cy5-[…], class from inhibition at 5 and 15 μM, flow cytometry MFI; read-out: Binding affinity with HLA-B1502. The method, then:
(§1) Then, competitive peptide binding assays were performed.
A general note: Flow cytometry measures light scatter and fluorescence of single cells or particles in a stream.

Assay [2] concerns the target HLA-B5801 (Homo sapiens, UniProt P01889, A329T/C349S/D201E/D98Y/E176V/E187L/E204Q/E69T/G107R/I218V/I90N/K202T/L105A/L119I/N104I/N87E/Q89R/Q94S/R106L/R155S/R180L/R86G/S101N/S121R/S35A/S48A/T118I/V127L/V306I/V36M/Y140S/Y91M). The experiment in a line: Competitive peptide binding assay, CIR-B5801. The following applies: HMy2.CIR-B5801 cells, reference Cy5-[…], class from inhibition at 5 and 15 μM, flow cytometry MFI; read-out: Binding affinity with HLA-B5801. How it is done: as §1

Assay [3] deals with HLA-B3501 (Homo sapiens, UniProt P01889, A329T/A93T/A95T/C349S/D201E/D98Y/E176V/E187L/E204Q/E69T/I218V/K202T/L119I/Q94N/R155S/R180L/S121R/S35A/S48A/T118I/V127L/V306I/V36M/Y140S/Y91F). The assay can be described thus: Competitive peptide binding assay, CIR-B3501. The conditions noted are these: HMy2.CIR-B3501 cells, reference Cy5-[…], class from inhibition at 5 and 15 μM, flow cytometry MFI; read-out: Binding affinity with HLA-B3501. How it is done: as §1

The target of assay [4] is HLA-B4801 (Homo sapiens, UniProt P01889, A269T/A93T/A95T/D138N/D98Y/E176V/N87E/Q94N/R180L/T167S/W171L/Y91S). The assay can be described thus: Competitive peptide binding assay, CIR-B4801. The conditions noted are these: HMy2.CIR-B4801 cells, reference Cy5-[…], class from inhibition at 5 and 15 μM, flow cytometry MFI; read-out: Binding affinity with HLA-B4801. How it is done:
as §1

Assay [5] addresses HLA-B4001 (Homo sapiens, UniProt P01889, A65T/A93T/A95T/D138N/D98Y/E176V/E69K/N87E/Q56L/Q94N/R180L/S121R/S35A/S48T/T167S/V36M/W171L/Y33H/Y91S). The assay can be described thus: Competitive peptide binding assay, CIR-B4001. The conditions noted are these: HMy2.CIR-B4001 cells, reference Cy5-[…], class from inhibition at 5 and 15 μM, flow cytometry MFI; read-out: Binding affinity with HLA-B4001. How it is done:
as §1

The target in assay [6] is HLA-B1501 (Homo sapiens, UniProt P01889, A329T/A93T/A95T/C349S/D201E/D98Y/E187L/E204Q/E69M/E70A/K202T/N87E/Q94N/R155S/R180W/S121R/S35A/S48A/V306I/V36M/Y140S/Y91S). The experiment in a line: Competitive peptide binding assay, CIR-B1501. The following applies: HMy2.CIR-B1501 cells, reference Cy5-[…], class from inhibition at 5 and 15 μM, flow cytometry MFI; read-out: Binding affinity with HLA-B1501. The method, then: as §1

Assay [7] deals with HLA-B1302 (Homo sapiens, UniProt P01889, A65T/A93T/A95T/D138N/D201E/D98Y/E176V/E204Q/E69M/E70A/G107R/K202T/L105A/L119W/N104T/N87E/Q94N/R106L/R155S/R169L/R180L/S101N/S121T/S35A/S48T/V127L/V36M/Y140L/Y91S). The experiment in a line: Competitive peptide binding assay, CIR-B1302. The conditions noted are these: HMy2.CIR-B1302 cells, reference Cy5-MMWYWGPSL, class from inhibition at 5 and 15 μM, flow cytometry MFI; read-out: Binding affinity with HLA-B1302. How it is done: as §1

The target in assay [8] is HLA-B1301 (Homo sapiens, UniProt P01889, A65T/A93T/A95T/D138N/D201E/D98Y/E176V/E204Q/E69M/E70A/G107R/K202T/L105A/L119I/N104T/N87E/Q94N/R106L/R155S/R169L/R180L/S101N/S121R/S35A/S48T/T118I/V127L/V36M/Y140L/Y91S). The assay can be described thus: Competitive peptide binding assay, CIR-B1301. The conditions noted are these: HMy2.CIR-B1301 cells, reference Cy5-[…], class from inhibition at 5 and 15 μM, flow cytometry MFI; read-out: Binding affinity with HLA-B1301. The method, then: as §1

The target of assay [9] is HLA-B5101 (Homo sapiens, UniProt P01889, A329T/A93T/A95T/C349S/D138N/D201E/D98Y/E187L/E204Q/E69T/G107R/I218V/K202T/L105A/L119W/N104I/Q94N/R106L/R155S/R180L/S101N/S121T/S35A/S48A/V306I/V36M/Y195H/Y91F). The assay can be described thus: Competitive peptide binding assay, CIR-B5101. The conditions noted are these: HMy2.CIR-B5101 cells, reference Cy5-[…], class from inhibition at 5 and 15 μM, flow cytometry MFI; read-out: Binding affinity with HLA-B5101. The method, then:
as §1

For assay [10], the target named is HLA-B4601 (Homo sapiens, UniProt P01889, A329T/A93R/C349S/D201E/E100V/E187L/E204Q/E69M/E70A/I90K/K202T/N87E/R155S/R180W/S121R/S35A/S48A/V306I/V36M/Y140S). The experiment in a line: Competitive peptide binding assay, CIR-B4601. The conditions noted are these: HMy2.CIR-B4601 cells, reference Cy5-[…], class from inhibition at 5 and 15 μM, flow cytometry MFI; read-out: Binding affinity with HLA-B4601. How it is done: as §1

Assay [11] concerns the target HLA-C0602 (Homo sapiens, UniProt P10321, A176E/A330V/C350S/L171W/L180W/L218V/M285V/M309V/M331V/N104K/P208H/Q277E/Q291P/R121W/S101N/S123Y/S297R/T329A/T363A/V319A/V328M). The experiment in a line: Competitive peptide binding assay, CIR-C0602.
The target in assay [12] is HLA-C0701 (Homo sapiens, UniProt P10321, K90N/S123Y). The experiment in a line: Competitive peptide binding assay, CIR-C0701. The conditions noted are these: HMy2.CIR-C0701 cells, reference Cy5-[…], class from inhibition at 5 and 15 μM, flow cytometry MFI; read-out: Binding affinity with HLA-C 0701. How it is done: as §1
Assay [13] addresses HLA-C0401 (Homo sapiens, UniProt P10321, A176E/A330V/A35S/A73E/C25G/C350S/D138N/D33S/E299K/L171W/L180R/L218V/M285V/M309V/M331V/N104K/P208H/Q277E/Q291P/R243W/R38W/S101N/S123F/S140F/S297R/S48A/T329A/T363A/V319A/V327M). The experiment in a line: Competitive peptide binding assay, CIR-C0401. The following applies: HMy2.CIR-C0401 cells, reference Cy5-[…], class from inhibition at 5 and 15 μM, flow cytometry MFI; read-out: Binding affinity with HLA-C0401. How it is done:
as §1

Assay [14] addresses HLA-C0702 (Homo sapiens, UniProt P10321). The experiment in a line: Competitive peptide binding assay, CIR-C0702.
For assay [15], the target named is HLA-C0102 (Homo sapiens, UniProt P10321, A176E/A330V/A35S/A97T/C350S/D114A/D33F/L171W/L180R/L218V/M285V/M309V/M331V/P208H/Q277E/Q291P/R121W/R243W/R30K/S123C/S140Y/S297R/T329A/T363A/V272M/V319A). The experiment in a line: Competitive peptide binding assay, CIR-C0102. The conditions noted are these: HMy2.CIR-C0102 cells, reference Cy5-[…], class from inhibition at 5 and 15 μM, flow cytometry MFI; read-out: Binding affinity with HLA-C0102. The method, then:
as §1

Regarding `CC(C)C[C@H](NC(=O)[C@H](CCC(=O)O)NC(=O)[C@H](CCCCN)NC(=O)[C@H](Cc1ccccc1)NC(=O)[C@H](CO)NC(=O)[C@@H](N)CC(C)C)C(=O)N[C@@H](CC(C)C)C(=O)N[C@H](C(=O)N[C@@H](Cc1ccc(O)cc1)C(=O)O)C(C)C` [Epitope Y142] (H-LSFKELLVY-OH; N-terminus and C-terminus assumed), the IC50 in [1] was above 15 µM; in [2], below 5 µM; in assay [3], above 15 µM; in assay [4], above 15 µM; in assay [5], above 15 µM; in [6], 5 to 15 µM.

Consider `C[C@H](NC(=O)[C@H](CO)NC(=O)[C@@H](N)CCCCN)C(=O)NCC(=O)N[C@@H](Cc1ccccc1)C(=O)N1CCC[C@H]1C(=O)N[C@@H](Cc1ccccc1)C(=O)N[C@@H](CC(N)=O)C(=O)N[C@@H](CCCCN)C(=O)N[C@@H](Cc1c[nH]c2ccccc12)C(=O)O` [Epitope Y306] (H-KSAGFPFNKW-OH; N-terminus and C-terminus assumed), for which the IC50 is above 15 µM in assay [4], below 5 µM in assay [7], above 15 µM in [5] and above 15 µM in assay [6].

For the molecule `CC[C@H](C)[C@H](NC(=O)[C@H](C)NC(=O)[C@H](C)NC(=O)[C@H](CC(N)=O)NC(=O)CNC(=O)[C@H](CC(=O)O)NC(=O)[C@H](CCC(N)=O)NC(=O)[C@H](C)NC(=O)[C@@H](N)Cc1ccccc1)C(=O)O` [Epitope Y246] (H-FAQDGNAAI-OH; N-terminus and C-terminus assumed), the IC50 in assay [8], in [1], in assay [2], in assay [3], in assay [4] and in assay [7] was above 15 µM each time. In addition, the IC50 in [6] is above 15 µM.

For the molecule `CSCC[C@H](NC(=O)[C@H](C)NC(=O)[C@H](CCC(=O)O)NC(=O)[C@H](Cc1ccc(O)cc1)NC(=O)[C@H](Cc1ccccc1)NC(=O)[C@H](CCC(=O)O)NC(=O)[C@@H]1CCCN1C(=O)[C@H](CCC(=O)O)NC(=O)[C@@H](N)Cc1c[nH]c2ccccc12)C(=O)O` [Epitope Y200] (H-WEPEFYEAM-OH; N-terminus and C-terminus assumed), the IC50 in assay [8], in assay [2], in assay [3], in assay [4], in assay [7] and in [6] was above 15 µM in each case.

`CC(C)C[C@H](NC(=O)[C@H](CC(=O)O)NC(=O)[C@@H](NC(=O)[C@H](CC(=O)O)NC(=O)[C@@H](NC(=O)[C@H](Cc1c[nH]cn1)NC(=O)[C@H](CO)NC(=O)[C@H](CCC(=O)O)NC(=O)[C@H](C)N)C(C)C)[C@@H](C)O)C(=O)O` [Epitope Y198] (H-AESHVDTDL-OH; N-terminus and C-terminus assumed): the IC50 in [1] was above 15 µM; in assay [2] it was above 15 µM; in assay [9], above 15 µM; in assay [3] it was above 15 µM; in assay [4], above 15 µM; in assay [7], 5 to 15 µM. Also, the IC50 in assay [10] and in assay [6] was above 15 µM each time.

For `CC(C)C[C@H](N)C(=O)N[C@H](C(=O)N[C@@H](CCCCN)C(=O)N1CCC[C@H]1C(=O)N[C@@H](CO)C(=O)N[C@@H](Cc1ccccc1)C(=O)N[C@@H](Cc1ccc(O)cc1)C(=O)N[C@H](C(=O)N[C@@H](Cc1ccc(O)cc1)C(=O)O)C(C)C)C(C)C` [Epitope Y125] (H-LVKPSFYVY-OH; N-terminus and C-terminus assumed), the IC50 in assay [1] was above 15 µM; in [2], 5 to 15 µM; in [4] it was above 15 µM; in [7] it was above 15 µM; in assay [6], below 5 µM.

For the molecule `C[C@H](NC(=O)[C@H](Cc1ccc(O)cc1)NC(=O)[C@H](C)NC(=O)[C@@H](N)Cc1ccccc1)C(=O)N[C@@H](CC(N)=O)C(=O)N[C@@H](CCCNC(=N)N)C(=O)N[C@@H](CC(N)=O)C(=O)N[C@@H](CCCNC(=N)N)C(=O)N[C@@H](Cc1ccccc1)C(=O)O` [Epitope M43] (H-FAYANRNRF-OH; N-terminus and C-terminus assumed), the IC50 in assay [11] was 5 to 15 µM; in assay [12] it was below 5 µM; in assay [13], above 15 µM; in [14], 5 to 15 µM; in assay [15], above 15 µM.

(Values after PMC12133982, “Predominant T-cell epitopes of SARS-CoV-2 restricted by multiple prevalent HLA-B and HLA-C allotypes in Northeast Asia” (Frontiers in Immunology, 2025).)
